Assay [1] deals with T1, Aβ42 (Homo sapiens, UniProt P05067).
T1 construct: purchased Peptide Institute, Inc. (Osaka, Japan)
The assay can be described thus: ITC binding of 6 with Aβ42. The method, then:
Distinct reactivities of 6 with metal-free Aβ and metal–Aβ were supported by various biophysical approaches. […] In the absence of Aβ, an increase or decrease in the absorption of the peaks at ca. 265, 300, 340, and 410 nm was monitored for 24 h (Fig. S18 ^†), which could be resulted from the oxidation of 6 in the presence of O2.[69] These spectral changes were accelerated upon incubation with Aβ, indicative of its impact on the oxidative modification of 6. Such transformation of 6 was also indicated in the presence of Cu(II) or Zn(II) with and without Aβ. To probe the interaction of 6 with Aβ, their binding properties were analyzed by isothermal titration calorimetry (ITC). For the association between 6 and Aβ, we recorded the heat change upon constant titration of the flavonoid into the solution of Aβ, where the dilution heat was also measured to avoid the heat change induced by its addition into the buffered solution. […] Thus, 6 can bind to Aβ with a micromolar binding affinity. […]
ITC. The solutions of Ab and 6 were subjected to degassing under vacuum for 3 min prior to loading into the instrument. […] […] The initial delay and the reference power were 60 s and 10 µcal/s, respectively. Dilution heat of 6 only was also measured under the same experimental conditions.
The ITC thermogram and binding isotherm were shown after the subtraction of the dilution heat.
The binding isotherm after baseline correction was fitted to the one-set-of-sites binding model using the MicroCal Origin software (version 7.0).
Expression and Purification of 15N-labeled Recombinant Ab42. 15N-labeled recombinant Ab42 was expressed in E. coli and purified as previously reported.27 Briefly, the DNA sequence coding the human Ab42 peptide was artificially constructed using codons preferred by E. coli with an extra Met residue at the N-terminal of the peptide. The DNA construct was inserted into pAED4 vector28 and the E. coli BL21 (DE3) pLysS strain (Novagen, Inc., Madison, WI, USA) was utilized in the protein expression. Transformed cells were incubated in LB media containing ampicillin and chloramphenicol until the cultures reach 3.5 McFarland turbidity. Cells were then harvested by centrifugation and the cell pellets were resuspended in M9 minimal media containing isotopically labeled 1 g/L 15N ammonium chloride, and induced by addition of 1 mM IPTG for 4 h. The peptide formed inclusion bodies in the bacterial cells. The purified inclusion bodies were dissolved in 20 mM NaOH and the peptide was further purified by repeated cycles of amyloid growth at low pH

The target of assay [2] is T1, Aβ42. The assay can be described thus: ESI-MS and ESI-MS2 of Aβ42 treated with 6. The note with it: 6 200 μM, 3 h. An excerpt: To identify the modifications of Aβ in both the absence and presence of Cu(II) upon treatment of 6, we carried out the studies employing electrospray ionization mass spectrometry (ESI-MS). In the sample containing metal-free Aβ42 and 6, the addition of +16 Da into the +3-charged Aβ42 monomer, assigned to be the oxidized monomeric Aβ42, was detected (Fig. 7a), while such oxidation was not observed under anaerobic conditions (Fig. S20 ^†). To determine the oxidized amino acid residues in Aβ42, the b fragments generated by collision-induced dissociation were analyzed by tandem MS (ESI-MS^2). As illustrated in Fig. 7b and S21a, ^† the Met35 residue was measured to be the oxidation site in the singly oxidized Aβ42. […] Similar to metal-free Aβ42, the oxidation of Aβ40 at the Met35 residue was monitored by incubation with 6 (Fig. S22a, b and S23a ^†). […]
2D 1H−15N SOFAST-HMQC NMR Experiments. […] Experimental data were processed with NMRpipe29 and Sparky 3.115.30 The 1H and 15N assignments of 15N-labeled Ab were determined based on the previous results.21,31 The chemical shift perturbation was calculated following the equation (eq 4).32 Note that DdH and DdN represent the alterations in the chemical shifts of 1H and 15N of 15N-labeled Ab, respectively. […]

T1 sequence (P05067 672-713 limits assumed): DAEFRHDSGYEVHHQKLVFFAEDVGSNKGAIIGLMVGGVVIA

On to `O=c1c(-c2ccc(O)c(O)c2)coc2cc(O)c(O)c(O)c12` [compound 6, 3-(3,4-dihydroxyphenyl)-5,6,7-trihydroxy-4H-chromen-4-one], for which, in assay [1] (one-site model, 10 °C, read-out: Binding affinity), the Kd was roughly 19.5 µM. In addition, in assay [1] (pH 7.4, 10 °C), the TΔS was 5.6 (±0.1) kcal mol^−1, the ΔG was −6.1 (±0.1) kcal mol^−1 and the ΔH is listed as −0.5 (±0.1) kcal mol^−1. Moreover, in assay [2] (Cu(II)–Aβ42, Cu(II) 100 μM), the “plausible oxidation sites in singly oxidized Aβ” value is “His13, His14, and Met35”. Also, the “oxidation site in singly oxidized Aβ” value in assay [2] (metal-free Aβ42 100 μM, aerobic) was “Met35”.

(Values after paper PMC10498667 (Chemical Science, 2023).)
